# Measured values taken from US11013709B2, “Highly purified eicosapentaenoic acid, as free fatty acid, reduces fecal calprotectin levels and prevents clinical relapse in ulcerative colitis patients” (S.L.A. PHARMA AG, priority 2017, dated 2021).
# Key:
# [1] = cited from earlier work
# [2] = Safety and tolerability in placebo-controlled trial of UC patients; assay type: in vivo, human; settings: 60 patients with UC treated for 6 months
# Experimental: (§1) The present invention provides for a double-blind, randomized, placebo-controlled study with UC patients with fecal calprotectin level ≥150 μg/g and in stable therapy for at least the 3 previous months. Each subject, receives either 2 grams daily of EPA-FFA (2 dosages of 500 mg sustained-release capsules, twice a day) or placebo (2 dosages of 500 mg sustained-release capsules of capric and caprylic acids, twice daily) for a 6 month period. At baseline, the patients undergo a total colonoscopy. Fecal calprotectin levels, clinical and laboratory assessments are performed at baseline, 3 and 6 months or at the time of clinical relapse, which has been defined as the occurrence of symptoms accompanied by an increase in the partial Mayo score ≥2 and/or requiring a change in therapy.
# Patients who satisfied the inclusion criteria undergo blood tests, including C-reactive protein (CRP) (normal upper limit 5 mg/L) and a total colonoscopy with multiple biopsies at baseline. They are then randomized 1:1 to receive either 2 g daily of EPA-FFA (2×500 mg gastro-resistant sustained-release capsules, twice-daily) or 2 g of placebo (2×500 mg gastro-resistant sustained-release capsules of capric and caprylic acids that are triglycerides of the fractionated plant fatty acids, twice-daily) for a 6-month period. The entire study team are blinded to the treatment assignment.
# fecal calprotectin (FC) = assay: Double-blind, randomized, placebo-controlled study in UC patients: fecal calprotectin level (ELISA, Calprest); assay type: in vivo, human; settings: over a six month period of administering highly purified EPA-FFA
# Experimental: as §1, with “therapy. […]” for “therapy.”
# The primary endpoint is the proportion of patients achieving a 100-point reduction (100 μg/g or greater) from baseline in FC level at 6 months. […] A combined endpoint consisting of the number of patients achieving the primary and secondary endpoints is also calculated. […]
# A fecal sample from the first bowel movement in the morning is stored in a refrigerator at 2-8° C. for a maximum of 24 h before performing the analysis. Quantification of FC levels is carried out using a quantitative, enzyme-linked immunosorbent assay (Calprest; Eurospital, Trieste, Italy), according to the manufacturers' instructions. […]
structure (smiles),measurement,setting,value
"CC/C=C\C/C=C\C/C=C\C/C=C\C/C=C\CCCC(=O)O [EPA-FFA, eicosapentaenoic acid]",incorporation of EPA into plasma phospholipids and red blood cell membranes,"[1]; 2 g daily for 8 weeks, patients with IBD and healthy volunteers",consistently incorporated into plasma phospholipids and red blood cell membranes
same,metabolic conversion,[1],quickly converted into docosahexaenoic acid via docosapentaenoic acid
same,serious adverse events,[2],no serious adverse events
same,reduction of FC,fecal calprotectin (FC),at least 100 μg/g
